For data set [1] the following is noted: Liquid; for mass density: 293.15 K, 101.33 kPa.
Data set [2] in a line: refractive index (Na D-line) (dimensionless). The conditions noted are these: 293.15 K; 101.33 kPa; Liquid.

Data on three compounds can be found in the NIST ThermoML archive (doi:10.1016/j.jct.2006.05.005).

Numbers after ± are expanded uncertainties.

`CC(C)OC(C)C` [diisopropyl ether]: in data set [1], the mass density came to 723.9 ± 2.4 kg/m3 and the Normal boiling temperature stood at 68.40 ± 0.4 °C.
For the compound `CCCOCCC` [dipropyl ether], in data set [1], the mass density is given as 736.1 ± 8.8 kg/m3 and the Normal boiling temperature is 90.08 ± 0.4 °C. For the same compound, the refractive index in data set [2] is reported as 1.3813 ± 0.0064.
`CCC(=O)O` [propanoic acid]: in data set [1], the mass density came out at 993 ± 0.74 kg/m3 and the Normal boiling temperature worked out at 141.2 ± 0.4 °C. Besides, in data set [2], the refractive index turned out to be 1.3811 ± 0.0017.

In general, mass density refers to mass per unit of volume. In general, refractive index refers to a measure of how strongly the sample bends light.
